This is an account of results in patent US8906889B2, “C-3 cycloalkenyl triterpenoids with HIV maturation inhibitory activity” (priority 2012, dated 2014).

This test concerns recombinant NL4-3 virus (Renilla luciferase, Gag P373S). The test is described as follows: HIV cell culture assay (luciferase reporter, MT-2 cells). The format is cell-based. Particulars: luciferase activity. As for the experimental part:
MT-2 cells and 293T cells were obtained from the NIH AIDS Research and Reference Reagent Program. MT-2 cells were propagated in RPMI 1640 media supplemented with 10% heat inactivated fetal bovine serum, […]. The 293T cells were propagated in DMEM media supplemented with 10% heat inactivated fetal bovine serum (FBS), 100 units/ml penicillin G and 100 μg/ml streptomycin. The proviral DNA clone of NL4-3 was obtained from the NIH AIDS Research and Reference Reagent Program. A recombinant NL4-3 virus, in which a section of the nef gene from NL4-3 was replaced with the Renilla luciferase gene, was used as a reference virus. In addition, residue Gag P373 was converted to P373S. Briefly, the recombinant virus was prepared by transfection of the altered proviral clone of NL4-3. Transfections were performed in 293T cells using LipofectAMINE PLUS from Invitrogen (Carlsbad, Calif.), according to manufacturer's instruction. The virus was titered in MT-2 cells using luciferase enzyme activity as a marker. Luciferase was quantitated using the Dual Luciferase kit from Promega (Madison, Wis.), with modifications to the manufacturer's protocol. The diluted Passive Lysis solution was pre-mixed with the re-suspended Luciferase Assay Reagent and the re-suspended Stop & Glo Substrate (2:1:1 ratio). Fifty (50) μL of the mixture was added to each aspirated well on assay plates and luciferase activity was measured immediately on a Wallac TriLux (Perkin-Elmer). Antiviral activities of inhibitors toward the recombinant virus were quantified by measuring luciferase activity in cells infected for 4-5 days with NLRluc recombinants in the presence serial dilutions of the inhibitor.
Background: In a reporter assay the amount or activity of a reporter protein is the signal.

The mark [1] stands for this setting: Renilla, NL43, MT-2 cells infected for 4-5 days with NLRluc recombinants.
[2] abbreviates: MT-2 cells infected for 4-5 days with NLRluc recombinants.

Molecules are shown by their SMILES. pEC50: −log10 of the molar value.

By pEC50 is commonly meant the EC50 on a negative log10 scale, so that one unit is a factor of ten. For `C=C(C)[C@@H]1CC[C@]2(NCCN3CCC(S(C)(=O)=O)CC3)CC[C@]3(C)[C@H](CC[C@@H]4[C@@]5(C)CC=C(C6=CCC(C#N)(C(=O)O)CC6)C(C)(C)[C@@H]5CC[C@]43C)[C@@H]12` (mixture of isomers) [Example A6, 1-cyano-4-((1R,3aS,5aR,5bR,7aR,11aS,11bR,13aR,13bR)-5a,5b,8,8,11a-pentamethyl-3a-((2-(4-(methylsulfonyl)piperidin-1-yl)ethyl)amino)-1-(prop-1-en-2-yl)-2,3,3a,4,5,5a,5b,6,7,7a,8,11,11a,11b,12,13,13a,13b-octadecahydro-1H-cyclopenta[a]chrysen-9-yl)cyclohex-3-enecarboxylic acid], under setting [1], the pEC50 was 8.21. On to `C=C(C)[C@@H]1CC[C@]2(NCCN3CCC(S(C)(=O)=O)CC3)CC[C@]3(C)[C@H](CC[C@@H]4[C@@]5(C)CC=C(C6=CCC(Cl)(C(=O)O)CC6)C(C)(C)[C@@H]5CC[C@]43C)[C@@H]12` (mixture of isomers) [Example A8, 1-chloro-4-((1R,3aS,5aR,5bR,7aR,11aS,11bR,13aR,13bR)-5a,5b,8,8,11a-pentamethyl-3a-((2-(4-(methylsulfonyl)piperidin-1-yl)ethyl)amino)-1-(prop-1-en-2-yl)-2,3,3a,4,5,5a,5b,6,7,7a,8,11,11a,11b,12,13,13a,13b-octadecahydro-1H-cyclopenta[a]chrysen-9-yl)cyclohex-3-enecarboxylic acid], for which the pEC50 under setting [1] was 8.62.

`C=C(C)[C@@H]1CC[C@]2(NCCN3CCC(S(C)(=O)=O)CC3)CC[C@]3(C)[C@H](CC[C@@H]4[C@@]5(C)CC=C(C6=CCC(CCO)(C(=O)O)CC6)C(C)(C)[C@@H]5CC[C@]43C)[C@@H]12` (mixture of isomers) [Example A11]: the pEC50 under setting [1] was 8.58.

For `C=C(C)[C@@H]1CC[C@]2(NCCN3CCC(S(C)(=O)=O)CC3)CC[C@]3(C)[C@H](CC[C@@H]4[C@@]5(C)CC=C(C6=CCC(CO)(C(=O)O)CC6)C(C)(C)[C@@H]5CC[C@]43C)[C@@H]12` (mixture of isomers) [Example A13, 1-(hydroxymethyl)-4-((1R,3aS,5aR,5bR,7aR,11aS,11bR,13aR,13bR)-5a,5b,8,8,11a-pentamethyl-3a-((2-(4-(methylsulfonyl)piperidin-1-yl)ethyl)amino)-1-(prop-1-en-2-yl)-2,3,3a,4,5,5a,5b,6,7,7a,8,11,11a,11b,12,13,13a,13b-octadecahydro-1H-cyclopenta[a]chrysen-9-yl)cyclohex-3-enecarboxylic acid], under setting [1], the pEC50 is 9.52. With `C=C(C)[C@@H]1CC[C@]2(NCCN3CCS(=O)(=O)CC3)CC[C@]3(C)[C@H](CC[C@@H]4[C@@]5(C)CC=C(C6=CC(CC(=O)O)CC6)C(C)(C)[C@@H]5CC[C@]43C)[C@@H]12` (mixture of isomers) [Example A15], the pEC50 under setting [1] is 9.26.

Consider `C=C(C)[C@@H]1CC[C@]2(NCCN3CCS(=O)(=O)CC3)CC[C@]3(C)[C@H](CC[C@@H]4[C@@]5(C)CC=C(C6=CC7C(C6)C7C(=O)O)C(C)(C)[C@@H]5CC[C@]43C)[C@@H]12` (mixture of isomers) [Example A18, 3-((1R,3aS,5aR,5bR,7aR,11aS,11bR,13aR,13bR)-3a-((2-(1,1-dioxidothiomorpholino)ethyl)amino)-5a,5b,8,8,11a-pentamethyl-1-(prop-1-en-2-yl)-2,3,3a,4,5,5a,5b,6,7,7a,8,11,11a,11b,12,13,13a,13b-octadecahydro-1H-cyclopenta[a]chrysen-9-yl)bicyclo[3.1.0]hex-2-ene-6-carboxylic acid], for which the pEC50 under setting [1] was 8.65. The same measure, in the same setting: for `C=C(C)[C@@H]1CC[C@]2(NCCN3CCC(S(C)(=O)=O)CC3)CC[C@]3(C)[C@H](CC[C@@H]4[C@@]5(C)CC=C(C6=CCC(NC(C)=O)(C(=O)O)CC6)C(C)(C)[C@@H]5CC[C@]43C)[C@@H]12` (mixture of isomers) [Example A32, 1-acetamido-4-((1R,3aS,5aR,5bR,7aR,11aS,11bR,13aR,13bR)-5a,5b,8,8,11a-pentamethyl-3a-((2-(4-(methylsulfonyl)piperidin-1-yl)ethyl)amino)-1-(prop-1-en-2-yl)-2,3,3a,4,5,5a,5b,6,7,7a,8,11,11a,11b,12,13,13a,13b-octadecahydro-1H-cyclopenta[a]chrysen-9-yl)cyclohex-3-enecarboxylic acid] the value was 8.82.

`C=C(C)[C@@H]1CC[C@]2(NCCN3CCC(S(C)(=O)=O)CC3)CC[C@]3(C)[C@H](CC[C@@H]4[C@@]5(C)CC=C(C6=CCC(CC(=O)O)CC6)C(C)(C)[C@@H]5CC[C@]43C)[C@@H]12` (mixture of isomers) [Example A33, 2-(4-((1R,3aS,5aR,5bR,7aR,11aS,11bR,13aR,13bR)-5a,5b,8,8,11a-pentamethyl-3a-((2-(4-(methylsulfonyl)piperidin-1-yl)ethyl)amino)-1-(prop-1-en-2-yl)-2,3,3a,4,5,5a,5b,6,7,7a,8,11,11a,11b,12,13,13a,13b-octadecahydro-1H-cyclopenta[a]chrysen-9-yl)cyclohex-3-en-1-yl)acetic acid]: the pEC50 under setting [1] was 6.24. Same read-out and setting: for `C=C(C)[C@@H]1CC[C@]2(NCCN3CCS(=O)(=O)CC3)CC[C@]3(C)[C@H](CC[C@@H]4[C@@]5(C)CC=C(C6=CC(C(=O)O)C(C(=O)O)C6)C(C)(C)[C@@H]5CC[C@]43C)[C@@H]12` (single isomer, unassigned) [Example A19] the value was 7.00. Consider `C=C(C)[C@@H]1CC[C@]2(NCCN3CCS(=O)(=O)CC3)CC[C@]3(C)[C@H](CC[C@@H]4[C@@]5(C)CC=C(C6=CC(C(=O)O)C(C(=O)O)C6)C(C)(C)[C@@H]5CC[C@]43C)[C@@H]12` (single isomer, unassigned) [Example A20], for which, under setting [2], the pEC50 is 7.22.

Turning to `C=C(C)[C@@H]1CC[C@]2(NCCN3CCS(=O)(=O)CC3)CC[C@]3(C)[C@H](CC[C@@H]4[C@@]5(C)CC=C(C6=CC(C(F)(F)C(=O)O)CC6)C(C)(C)[C@@H]5CC[C@]43C)[C@@H]12` (single isomer, unassigned) [Example A23], under setting [1], the pEC50 was 8.25. The same measure, in the same setting: for `C=C(C)[C@@H]1CC[C@]2(NCCN3CCS(=O)(=O)CC3)CC[C@]3(C)[C@H](CC[C@@H]4[C@@]5(C)CC=C(C6=CCC(C(F)(F)C(=O)O)C6)C(C)(C)[C@@H]5CC[C@]43C)[C@@H]12` (single isomer, unassigned) [Example A24] the value was 8.33.

Take `C=C(C)[C@@H]1CC[C@]2(NCCN3CCS(=O)(=O)CC3)CC[C@]3(C)[C@H](CC[C@@H]4[C@@]5(C)CC=C(C6=CC7C(C6)C7C(=O)O)C(C)(C)[C@@H]5CC[C@]43C)[C@@H]12` (single isomer, unassigned) [Example A26]: under setting [1], the pEC50 is 9.03. The same measure, in the same setting: for `C=C(C)[C@@H]1CC[C@]2(NCCN3CCC(S(C)(=O)=O)CC3)CC[C@]3(C)[C@H](CC[C@@H]4[C@@]5(C)CC=C(C6=CC7C(C6)C7C(=O)O)C(C)(C)[C@@H]5CC[C@]43C)[C@@H]12` (single isomer, unassigned) [Example A27] the value was 9.04. Take `C=C(C)[C@@H]1CC[C@]2(NCCN3CCC(S(C)(=O)=O)CC3)CC[C@]3(C)[C@H](CC[C@@H]4[C@@]5(C)CC=C(C6=CC7C(C6)C7C(=O)O)C(C)(C)[C@@H]5CC[C@]43C)[C@@H]12` (single isomer, unassigned) [Example A28]: the pEC50 under setting [2] was 9.18.
